The record followed here is ChEMBL document CHEMBL3351589, “Novel chalcone derivatives as hypoxia-inducible factor (HIF)-1 inhibitor: synthesis, anti-invasive and anti-angiogenic properties” (Eur J Med Chem, 2015).

The source made the active and inactive calls. The calls are words filed in the database; no cut-off is given here.

Data set [1] in a line: Acute toxicity in Swiss mouse assessed as mortality rate at 300 mg/kg, iv after 14 days relative to control. The data set is classed as organism-based. Further details: dose 300 mg/kg, route intravenous. Conditions: in vivo.
Data set [2] relates to HUVEC. Description: Antiinvasive activity in HUVEC assessed as inhibition of VEGF-induced invasion after 30 mins by transwell assay. The data set is classed as functional, cell-based. Conditions: Homo sapiens.
The subject of data set [3] is Hep 3B2. Description: Antiinvasive activity in human Hep3B cells assessed as inhibition of VEGF-induced invasion after 30 mins by transwell assay. Format: functional, cell-based.
Data set [4] relates to Mus musculus. In words: Acute toxicity in Swiss mouse assessed as structural abnormality in kidney at 300 mg/kg, iv after 14 days by histological analysis relative to control. Also on record: dose 300 mg/kg, route intravenous. The data set is classed as organism-based. Conditions: in vivo, 336 h.
The test system of data set [5] is HUVEC. Description: Cytotoxicity against HUVEC at >20 uM after 12 hrs by MTT assay. The data set is classed as cell-based. Particulars: human.
For data set [6], the system named is Hep 3B2. Description: Antitumor activity against human Hep3B cells xenografted in Balb/c nude mouse assessed as reduction in MMP-2 expression at 2.5 to 5 mg/kg, iv by immunohistochemical analysis. Format: functional, organism-based. (In general: Xenograft models place foreign cells or tissue in a host animal.)
Data set [7] in a line: Acute toxicity in iv dosed Swiss mouse. The data set is classed as organism-based. Conditions: in vivo.
Data set [8] can be described thus: Reduction of hypoxia-induced HIF-1 beta expression in human Hep3B cells after 48 hrs by Western blotting analysis. Format: functional, cell-based. Particulars: Hep 3B2. (In general: Immunoblotting shows a protein as a band on a membrane.)
Data set [9] is described as follows: Acute toxicity in Swiss mouse assessed as mortality rate at 200 mg/kg, iv after 14 days relative to control. Format: organism-based. Also on record: dose 200 mg/kg, route intravenous. Conditions: in vivo.
Data set [10] concerns HUVEC. Description: Antiangiogenic activity in HUVEC assessed as inhibition of VEGF-induced tube formation after 30 mins by matrigel assay. Format: functional, cell-based. Conditions: Homo sapiens.
Data set [11] relates to Hep 3B2. Description: Antimigratory activity in human Hep3B cells assessed as inhibition of VEGF-induced migration at 0.8 to 20 uM by real time cell analysis. The data set is classed as functional, cell-based.
Data set [12] in a line: Acute toxicity in Swiss mouse assessed as mortality rate at 100 mg/kg, iv after 14 days relative to control. Conditions: in vivo. Further details: dose 100 mg/kg, route intravenous. The data set is classed as organism-based.
The test system of data set [13] is Mus musculus. In words: Toxicity in Balb/c nude mouse xenografted with human Hep3B cells assessed as change in body weight at 2.5 to 5 mg/kg, iv. Particulars: in vivo. Further details: dose 2.5-5 mg/kg, route intravenous. The data set is classed as organism-based, Hep 3B2.
Data set [14] can be described thus: Cytotoxicity against human Hep3B cells at >20 uM after 12 hrs by MTT assay. The data set is classed as cell-based. Particulars: hep 3b2, 12 h. A general note: Formazan colour is commonly taken as a measure of viable cells.
Data set [15] concerns Hep 3B2. Description: Antitumor activity against human Hep3B cells xenografted in iv dosed Balb/c nude mouse assessed as inhibition of tumor growth after 11 days. Format: functional, organism-based.
Data set [16] concerns HUVEC. Description: Antimigratory activity in HUVEC assessed as inhibition of VEGF-induced migration at 0.8 to 20 uM by real time cell analysis. Format: functional, cell-based. Particulars: Homo sapiens.
Data set [17] deals with Hep 3B2. In words: Antitumor activity against human Hep3B cells xenografted in Balb/c nude mouse assessed as reduction in microvessel density at 2.5 to 5 mg/kg, iv by immunohistochemical analysis. Format: functional, organism-based.
Data set [18] can be described thus: Reduction of hypoxia-induced VEGF expression in human Hep3B cells after 48 hrs by Western blotting analysis. Particulars: Hep 3B2. Format: functional, cell-based.
Data set [19] in a line: Reduction of hypoxia-induced VEGF mRNA expression in human Hep3B cells after 48 hrs by RT-PCR analysis. Particulars: Hep 3B2. Format: functional, cell-based.
For data set [20], the system named is Mus musculus. Description: Acute toxicity in Swiss mouse assessed as structural abnormality in lung at 300 mg/kg, iv after 14 days by histological analysis relative to control. Format: organism-based. Also on record: dose 300 mg/kg, route intravenous. Particulars: in vivo, 336 h.
Data set [21] can be described thus: Reduction of hypoxia-induced HIF-1 alpha expression in human Hep3B cells after 48 hrs by Western blotting analysis. Particulars: Hep 3B2. The data set is classed as functional, cell-based.
Data set [22] is described as follows: Reduction of hypoxia-induced HIF-1 alpha expression in human Hep3B cells at 10 uM after 48 hrs by Western blotting analysis. The data set is classed as functional, cell-based. Conditions: Hep 3B2.
Data set [23] can be described thus: Reduction of hypoxia-induced HIF-1 beta expression in human Hep3B cells at 10 uM after 48 hrs by Western blotting analysis. Particulars: Hep 3B2. The data set is classed as functional, cell-based.

On to `COc1ccc(/C=C/C(=O)c2ccc3c(c2O)C=CC(C)(C)O3)cc1O`, for which the mortality at 336 h was 16.7% in data set [1], 0% in data set [9] and 0% in data set [12]. The Activity entry was “Dose-dependent effect” in the data set on HUVEC [2]; “Dose-dependent effect” in the data set with Hep 3B2 [3]; “Non-toxic” in the data set on Mus musculus [4]; “Non-toxic” in the data set with HUVEC [5]; “Dose-dependent effect” in data set [8]; “Non-toxic” in the data set with Mus musculus [13]. For the same compound, the Activity entry in [14] is “Non-toxic”; in [18] it was “Dose-dependent effect”; in data set [19], “Dose-dependent effect”; in the data set on Mus musculus [20], “Non-toxic”; in data set [21], “Dose-dependent effect”. Also, the outcome in the data set on Hep 3B2 [6], in the data set with Hep 3B2 [11], with HUVEC [16] and in the data set with Hep 3B2 [17] was Active. The same compound yielded an MTD in data set [7] of 22 mg/kg. The inhibition result with HUVEC [10] and with Hep 3B2 [15] was “Dose-dependent effect” each time.

As to `CC[C@@]1(O)C(=O)OCc2c1cc1n(c2=O)Cc2cc3c(CN(C)C)c(O)ccc3nc2-1`, the result in [22] and in data set [23] was Active.

Broadly, the mortality is the percentage killed.
